Source: patent US20120190687A1, “Pyrazinylpyrazoles” (Bayer CropScience Ag, priority 2009, published 2012)

Columns and labels:
Tetranychus urticae = test: Tetranychus test, OP-resistant (TETRUR spray treatment); assay type: in vivo; conditions: bean leaf discs, after 6 days
Description: Tetranychus Test, OP-resistant (TETRUR Spray Treatment)
Solvent: 78.0 parts by weight of acetone • • 1.5 parts by weight of dimethylformamide
Emulsifier: 0.5 part by weight of alkylaryl polyglycol ether
To prepare an appropriate active ingredient preparation, 1 part by weight of active ingredient is mixed with the stated amounts of solvent and emulsifier, and the concentrate is diluted with emulsifier-containing water to the desired concentration. Discs of bean leaves (Phaseolus vulgaris) infested by all stages of the red spider mite (Tetranychus urticae) are sprayed with an active ingredient preparation of the desired concentration. After 6 days, the efficacy in % is determined. 100% means that all spider mites have been killed; 0% means that none of the spider mites have been killed.

Phaedon cochleariae = test: Phaedon test (PHAECO spray treatment); assay type: in vivo; conditions: 500 g/ha, Chinese cabbage discs, after 7 days
Description: Phaedon Test ([…] Spray Treatment) Solvent: 78.0 parts by weight of acetone • • 1.5 parts by weight of dimethylformamide Emulsifier: 0.5 part by weight of alkylaryl polyglycol ether To prepare an appropriate active ingredient preparation, 1 part by weight of active ingredient is mixed with the stated amounts of solvent and emulsifier, and the concentrate is diluted with emulsifier-containing water to the desired concentration. Discs of Chinese cabbage (Brassica pekinensis) are sprayed with an active ingredient preparation of the desired concentration and, after drying, populated with larvae of the mustard beetle (Phaedon cochleariae). After 7 days, the efficacy in % is determined. 100% means that all beetle larvae have been killed; 0% means that none of the beetle larvae have been killed.

Boophilus microplus = Boophilus microplus test (BOOPMI injection); assay type: in vivo; conditions: 20 μg/animal, injection into abdomen, after 7 days, laying of fertile eggs
Description: Boophilus microplus Test (BOOPMI Injection) Solvent: Dimethyl Sulphoxide To prepare an appropriate active ingredient formulation, 10 mg of active ingredient are mixed with 0.5 ml of solvent and the concentrate is diluted with solvent to the desired concentration. The active ingredient solution is injected into the abdomen (Boophilus microplus), and the animals are transferred into dishes and stored in a climate-controlled room. The efficacy is assessed by laying of fertile eggs. After 7 days, the efficacy in % is determined. 100% means that none of the ticks has laid any fertile eggs.

Lucilia cuprina larvae = test: Lucilia cuprina test (LUCICU); assay type: in vivo; conditions: 100 ppm, treated horse meat, after 2 days
Description: (§1) Lucilia cuprina Test (LUCICU) Solvent: Dimethyl Sulphoxide To prepare an appropriate active ingredient formulation, 10 mg of active ingredient are mixed with 0.5 ml of dimethyl sulphoxide and the concentrate is diluted with water to the desired concentration. Vessels containing horse meat treated with the active ingredient preparation of the desired concentration are populated with about 20 Lucilia cuprina larvae. After 2 days, the kill in % is determined. 100% means that all of the larvae have been killed; 0% means that none of the larvae have been killed.

Spodoptera frugiperda = Spodoptera frugiperda test (SPODFR spray treatment); assay type: in vivo; conditions: 500 g/ha, maize leaf discs, after 7 days
Description: Spodoptera frugiperda Test (SPODFR Spray Treatment) Solvent: 78.0 parts by weight of acetone • • 1.5 parts by weight of dimethylformamide Emulsifier: 0.5 part by weight of alkylaryl polyglycol ether To prepare an appropriate active ingredient preparation, 1 part by weight of active ingredient is mixed with the stated amounts of solvent and emulsifier, and the concentrate is diluted with emulsifier-containing water to the desired concentration. Discs of maize leaves (Zea mays) are sprayed with an active ingredient preparation of the desired concentration and, after drying, populated with caterpillars of the armyworm (Spodoptera frugiperda). After 7 days, the efficacy in % is determined. 100% means that all caterpillars have been killed; 0% means that none of the caterpillars have been killed.

Ctenocephalides felis = Ctenocephalides felis test (CTECFE); assay type: in vivo; conditions: 100 ppm in citrated cow's blood, after 2 days
Description: Ctenocephalides felis Test ([…]) Solvent: 1 Part by Weight of Dimethyl Sulphoxide For the purpose of preparing an appropriate active ingredient formulation, 10 mg of active ingredient are mixed with 0.5 ml of dimethyl sulphoxide. A portion of the concentrate is diluted with citrated cow's blood and the desired concentration is established. About 20 unfed adult fleas (Ctenocephalides felis) are introduced into a chamber closed at the top and bottom with gauze. A metal cylinder, the bottom of which is closed with Parafilm, is placed onto the chamber. The cylinder contains the blood/active ingredient preparation, which can be imbibed by the fleas through the Parafilm membrane. After 2 days, the kill in % is determined. 100% means that all fleas have been killed; 0% means that none of the fleas have been killed.

Musca domestica = Musca domestica test; assay type: in vivo; conditions: after 2 days
Description: as §1, with “Musca domestica” for “Lucilia cuprina”, “Test” for “Test (LUCICU)”, “a sponge” for “horse meat”, “adult Musca domestica.” for “about 20 Lucilia cuprina larvae.”, “flies” for “larvae”

[1] = logP by reversed-phase HPLC (EEC Directive 79/831 Annex V.A8); assay type: physicochemical; conditions: * LC-MS, acidic range, pH 2.7, 0.1% aqueous formic acid / acetonitrile
Description: [table] The calibration is effected with unbranched alkan-2-ones (having 3 to 16 carbon atoms) with known log P values (log P values determined on the basis of the retention times by linear interpolation between two successive alkanones).

Myzus persicae = test: Myzus test (MYZUPE spray treatment); assay type: in vivo; conditions: 500 g/ha, Chinese cabbage discs, after 6 days
Description: Myzus test (MYZUPE Spray Treatment) Solvent: 78 parts by weight of acetone • • 1.5 parts by weight of dimethylformamide Emulsifier: 0.5 part by weight of alkylaryl polyglycol ether To prepare an appropriate active ingredient preparation, 1 part by weight of active ingredient is mixed with the stated amounts of solvent and emulsifier, and the concentrate is diluted with emulsifier-containing water to the desired concentration. Discs of Chinese cabbage (Brassica pekinensis) infested by all stages of the green peach aphid (Myzus persicae) are sprayed with an active ingredient preparation of the desired concentration. After 6 days, the efficacy in % is determined. 100% means that all of the aphids have been destroyed; 0% means that none of the aphids have been destroyed.

[2] = system: Boophilus microplus females of the SP-resistant Parkhurst strain; test: Boophilus microplus (dip); assay type: in vivo; conditions: 100 ppm, after 7 days, laying of fertile eggs
Description: Boophilus microplus (dip)
Test animals: adult engorged Boophilus microplus females of the SP-resistant Parkhurst strain
Solvent: Dimethyl Sulphoxide
10 mg of active ingredient are dissolved in 0.5 ml of dimethyl sulphoxide. For the purpose of preparing a suitable formulation, the active ingredient solution is diluted with water to the concentration desired in each case. This active ingredient preparation is pipetted into tubes. 8-10 ticks are transferred into a further tube with holes. The tube is immersed into the active ingredient formulation, and all ticks are completely wetted. After the liquid has run out, the ticks are transferred onto filter discs in plastic dishes and stored in a climate-controlled room. The activity is assessed after 7 days by laying of fertile eggs. Eggs whose fertility is not outwardly visible are stored in glass tubes in a climate-controlled cabinet until the larvae hatch. Efficacy of 100% means that none of the ticks has laid any fertile eggs.

SMILES | efficacy (Tetranychus urticae; 500 g/ha) [%] | efficacy (Phaedon cochleariae) [%] | efficacy (Boophilus microplus) [%] | efficacy (kill) (Lucilia cuprina larvae) [%] | efficacy (Spodoptera frugiperda) [%] | efficacy (kill) (Ctenocephalides felis) [%] | efficacy (kill) (Musca domestica; 100 ppm) [%] | log P [1] | efficacy (Myzus persicae) [%] | efficacy [2] [%] | chromatographic logP ([1]; reversed-phase HPLC column, read-out: log P) | efficacy (Tetranychus urticae; 100 g/ha) [%] | efficacy (kill) (Musca domestica; 20 ppm) [%]
COc1nccnc1-n1nc(C(F)(F)F)c(-c2cc(Br)c3c(c2)OCCCO3)c1N [Ex. 131] | 100 | 100 | 100 | 100 | 100 | 100 | 100 | 3.32* | – | – | – | – | –
COc1nccnc1-n1nc(C(F)(F)C(F)(F)F)c(-c2cc(F)cc(C(F)(F)F)c2)c1N [Ex. 21] | 100 | 100 | 100 | 100 | 100 | – | 100 | 4.23* | 100 | – | – | – | –
CCOc1nccnc1-n1nc(C(F)(F)F)c(-c2cc(Cl)cc(C(F)(F)F)c2)c1N [Ex. 12] | 90 | 100 | 100 | 100 | – | 90 | 100 | 4.47* | – | – | – | – | –
COc1nccnc1-n1nc(C(F)(F)Cl)c(-c2cc(Cl)cc(C(F)(F)F)c2)c1N [Ex. 17] | 100 | 100 | 100 | 100 | 100 | 100 | 100 | 4.24* | 100 | 100 | – | – | –
COc1nccnc1-n1nc(C(F)(F)F)c(-c2ccc(Cl)c(C(F)(F)F)c2)c1N [Ex. 18] | 100 | 100 | 100 | 100 | 83 | – | – | 3.94* | 90 | 100 | – | – | –
COc1nccnc1-n1nc(C(F)(F)F)c(-c2cc(Br)c3c(c2)OCCO3)c1N [Ex. 132] | 80 | 100 | 100 | 100 | 100 | 100 | 80 | 3.09* | – | 100 | – | – | –
COc1nccnc1-n1nc(C(F)(F)C(F)(F)F)c(-c2cc(Cl)cc(C(F)(F)F)c2)c1N [Ex. 15] | 100 | 100 | 100 | 100 | 100 | 95 | 95 | 4.58* | 100 | 100 | – | – | –
COc1cc(-c2c(C(F)(F)F)nn(-c3nccnc3OC)c2N)cc(C(F)(F)F)c1 [compound 26, 1-(3-methoxypyrazin-2-yl)-4-[3-methoxy-5-(trifluoromethyl)phenyl]-3-(trifluoromethyl)-1H-pyrazol-5-amine] | 100 | 100 | 100 | 100 | 83 | 95 | – | – | – | 90 | 3.63 | – | –
COc1nccnc1-n1nc(C(C)(F)F)c(-c2ccc(Cl)c(C(F)(F)F)c2)c1N [Ex. 20] | 100 | 100 | 100 | 100 | 100 | – | – | 3.74* | 100 | 100 | – | – | –
COc1nccnc1-n1nc(C(F)(F)C(F)(F)OC)c(-c2cc(Cl)cc(C(F)(F)F)c2)c1N [Ex. 47] | 100 | 100 | 100 | 100 | 100 | 100 | 80 | 3.98* | 80 | 100 | – | – | –
COc1nccnc1-n1nc(C(F)(F)F)c(-c2cc(Cl)c3c(c2)OCCO3)c1N [Ex. 133] | – | 100 | 100 | 100 | 100 | 100 | – | 3.02* | – | 95 | – | 90 | 80
C=Cc1nn(-c2nccnc2OC)c(N)c1-c1cc(Cl)cc(Cl)c1 [Ex. 8] | – | – | 100 | 100 | – | – | – | 3.51* | 100 | 90 | – | – | –
